pEC50: −log10 of the molar value. Read-outs that look alike come from different tables or passages of the source.
Assays:
[1] = test system: L1210 mouse lymphocytic leukemia cells; test: Flow cytometry (mode of action), cell cycle phases; type: cell-based; conditions: for G1 (%) / G2 (%) / S + M (%) / Cells (1000/ml): L1210 cells, 24 h incubation; for G1 (%): percentage of cells in phase G1; for G2 (%): percentage of cells in phase G2; for S + M (%): percentage of cells in phases S + M; for Cells (1000/ml): starting cell number 46000 cells/ml
Procedure: L1210 mouse lymphocytic leukemia cells growing in suspension culture were maintained at exponential growth in Dulbecco's modified Eagle's medium with 4.5 g/l glucose and 10% FBS, at 37° C. with 5% CO2. The experiments were started by adding the ethanol-dissolved anthracyclines, in amounts yielding to the appropriate final concentrations, to 25 cm^2 cell culture flasks. After the ethanol had evaporated, 5 ml of an approximately 50 000 cells per ml suspension was added to the flasks. Flow cytometric analysis was made of the original cell suspension and after one, two and three days incubation with or without the drugs.
Cells were prepared for flow cytometric DNA analysis according to the method of Vindelov et al. (1985). The analysis was performed with an Epics XL flow cytometer (Coulter Corporation, Miami, Fla.). Samples were illuminated with a […] air-cooled argon ion laser (488 nm) and the fluorescence of propidium iodide was detected through 620-nm band pass filter. The number of cells in each sample was separately counted by adding an internal calibrator (50 μl of a solution containing 1×10^6 Fluoresbrite beads/ml) to 50 μl of cell suspension.
Based on the flow cytometric studies, the cell cycle phases for the cells studied could be detected. Phase G1 is the stage for RNA and protein synthesis, but not for replication. Transition from phase G1 to phase S means the initiation of replication, and the phase will last until all of the DNA has been replicated. The period from phase S up to mitosis (M) is phase G2.

[2] = test system: Lewis lung carcinoma (LL/2); test: Cytotoxicity assay, ATP detection, LL/2; type: cell-based, mouse; conditions: LL/2 cells in vitro, read-out: ED50 LL/2
Procedure: The cytotoxicity tests were performed in 96-well microtiter plates (sterile white plates with clear bottom, Corning Costar Corporation, Cambridge, Mass., USA). The anthracyclines were pipetted into the plates in 10 μl of ethanol, pure ethanol was used for control plates. Daunorubicin and aclarubicin were used as positive controls. When the ethanol had evaporated, the cells were seeded into the plates in 100 μl of appropriate medium. The number of cells seeded per well was 2500 with MES-SA, 3000 with MES-SA/D×5, 3000 with LL/2, 2000 with B16-F0 and B16-F1, 2000 with KLN-205 and 8000 with MLTC-1. The ATP content of the cells was measured after incubating the cells for three days at 37° C. with 5% CO2.
The growth medium was removed by turning the plates over, and 200 μl of ATP extraction reagent, Somalyze, were added to the wells. The plates were then incubated for 30 minutes at room temperature. The ATP measurement was performed with Luminoskan luminometer (Labsystems Oy, Helsinki, Finland) at 22° C. 20 μl of ATP monitoring reagent containing luciferin and luciferase was dispensed, and an integral measurement of 10 s with 2 s lag time was performed for each well. All reagents used were supplied by Bio-Orbit Oy, Turku, Finland.
The direct luminometer output (in relative light units, RLUS) was used to calculate the cytotoxic effect. This light signal is directly proportional to the amount of […] in a wide range (determined with Bio-Orbit ATP standard, data not shown). On the other hand, the amount of ATP is directly proportional to the amount of living cells (Kangas et al., 1984). The results are expressed as percentages of the control value of untreated cells. An IC50 value (the drug concentration resulting to an ATP signal of 50% of the untreated control signal) was graphically estimated from the % of control vs. drug concentration plot.
H075-4a was also tested with several mouse cell lines in vitro (all were purchased from ATCC, Rockville, Md., USA): Lewis lung carcinoma (LL/2) (CRL-1642), B16-F0 melanoma (CRL-6322), B16-F1 melanoma (CRL-6323), KLN-205 lung squamous cell carcinoma (CRL-1453) and MLTC-1 leydig cell tumor (CRL-2065) using daunomycin, aclarubicin and H075-1a (MA 144U1) as references.
All cells grew as monolayers and were cultured at 37° C. with 5% CO2 according to ATCC standard instructions for each cell line: LL/2 in Dulbecco's modified Eagle's medium with 4.5 g/l glucose and 10% FCS, B16-F0 and B16-F1 in MEM (Eagle) in Earle's BSS with non-essential amino acids and 10% FCS, KLN-205 in MEM (Eagle) in Earle's BSS with non-essential amino acids and 10% FCS, MLTC-1 in RPMI 1640 with 25 mM HEPES and 10% FBS. All media were purchased from Gibco BRL, the serum was Gibco BRL Foetal Bovine Serum. […]

How did the “G1 (%)” value ([1]; concentration 1 × 10^−8M) turn out when `CCC1(O)CC(OC2CC(N(C)C)C(OC3CC(O)C(OC4CC(O)C(O)C(C)O4)C(C)O3)C(C)O2)c2c(O)c3c(c(O)c2C1C(=O)OC)C(=O)c1cccc(O)c1C3=O` (stereo not shown) [Compound H075-4a] was run?
The value was 40%.

And the “G2 (%)” value ([1]; concentration 1 × 10^−8M)?
Its value is 12%.

And the “S + M (%)” value ([1]; concentration 1 × 10^−8M)?
Its value is 48%.

And the “Cells (1000/ml)” value ([1]; concentration 1 × 10^−8M)?
The value was 88 1000/ml.

What about the “G1 (%)” value ([1]; concentration 3.3 × 10^−8M) of the same compound?
The value was 45%.

What about the “G2 (%)” value ([1]; concentration 3.3 × 10^−8M) of the same compound?
Its value is 19%.

And the “S + M (%)” value ([1]; concentration 3.3 × 10^−8M)?
Its value is 36%.

What about the “Cells (1000/ml)” value ([1]; concentration 3.3 × 10^−8M) of the same compound?
Its value is 67 1000/ml.

And the “cell cycle phase in which cells are arrested” value ([1]; flow cytometric DNA analysis)?
The value was “arrested the cells in phase G1”.

And the pEC50 [2]?
The pEC50 was 8.10.

What does the source list for `COc1cccc2c1C(=O)c1c(O)c3c(c(O)c1C2=O)C[C@@](O)(C(C)=O)C[C@@H]3O[C@H]1C[C@H](N)[C@H](O)[C@H](C)O1` [Daunorubicin]?
G1 (%) ([1]; concentration 1 × 10^−8M): 11%; G2 (%) ([1]; concentration 1 × 10^−8M): 38%; S + M (%) ([1]; concentration 1 × 10^−8M): 51%; Cells (1000/ml) ([1]; concentration 1 × 10^−8M): 66 1000/ml; G1 (%) ([1]; concentration 3.3 × 10^−8M): 6%; G2 (%) ([1]; concentration 3.3 × 10^−8M): 66%; S + M (%) ([1]; concentration 3.3 × 10^−8M): 27%; Cells (1000/ml) ([1]; concentration 3.3 × 10^−8M): 23 1000/ml; pEC50 ([2]; Mus musculus): 7.82

Source: patent US6399583B1, “Hybrid anthracyclines from genetically engineered streptomyces galilaeus strains, process for production and uses thereof” (Galilaeus Oy, priority 1998, dated 2002)
